Data as given in US5475034A, “Topically administrable compositions containing 3-benzoylphenylacetic acid derivatives for treatment of ophthalmic inflammatory disorders” (Alcon Laboratories, Inc., priority 1994, dated 1995).
Where two headings read alike, the source gives them in different places.

What was measured:
[1] = tested on: trauma-induced breakdown of the blood-aqueous-barrier; experiment: In vivo trauma-induced (paracentesis) breakdown of the blood-aqueous-barrier: aqueous humor PGE2 and protein; design: species or system New Zealand Albino (NZA) rabbits; details: for inhibition in vivo at 0.1 %: Oryctolagus cuniculus, 0.5 h, read-out: In Vivo Paracentesis Protein Extravasation Inhibition
Method: In vivo anti-inflammatory activity of 2-amino-3-benzoylbenzeneacetic acid analogues was evaluated in the model of trauma-induced breakdown of the blood-aqueous-barrier in New Zealand Albino (NZA) rabbits. Animals were anesthetized prior to bilateral administration of a single topical 50 μL dose of a 0.1% solution/suspension of formulated test or reference compound. After 45 minutes of treatment ocular trauma was induced by paracentesis.

[2] = tested on: iris/ciliary body prostaglandin synthesis; experiment: Ex vivo inhibition of iris/ciliary body prostaglandin synthesis after topical dosing; format: in vivo, New Zealand Albino (NZA) rabbits; details: for inhibition in vivo at 0.1 %: Oryctolagus cuniculus, 1 h, single topical dose of 0.1% drug solution/suspension 60 minutes prior to iris/ciliary body isolation, read-out: Ex Vivo Iris/Ciliary Body Total Prostaglandin Synthesis Inhibition
Method: Ex vivo anti-inflammatory activity of 2-amino-3-benzoylbenzeneacetic acid analogues was evaluated in naive New Zealand Albino (NZA) rabbits. In this test animals were dosed bilaterally with a single 50 μL aliquot of a 0.1% solution/suspension of vehicle, formulated test or reference compound. After 60 minutes of treatment, animals were euthanized, iris/ciliary body (ICB) quickly excised and placed into ice-cold PBS buffer (pH 7.4). The tissue was then weighed, homogenized in ice-cold 50 mM phosphate/0.5 mM phenol buffer (pH 7.4) and incubated for 10 minutes at 37° C. with 10 μM of [1-^14 C]-20:4.

[3] = molecular target: T1, prostaglandin H synthase (cyclooxygenase) (Ovis aries, UniProt P05979); experiment: In vitro inhibition of cyclooxygenase (polarographic oxygen consumption, conversion of arachidonic acid to prostaglandin H2); format: biochemical, sheep; details: for IC50: sheep vesicular gland microsomal enzyme, pH 7.4, 30° C.; for less effective inhibitors of cyclooxygenase activity in vitro: versus free carboxylic acid analogues
T1 construct: sheep vesicular gland microsomal powder; from tissue; host or cells: sheep vesicular gland (lipid-depleted microsomal powder, solubilized)
T1 sequence (P05979 25-600): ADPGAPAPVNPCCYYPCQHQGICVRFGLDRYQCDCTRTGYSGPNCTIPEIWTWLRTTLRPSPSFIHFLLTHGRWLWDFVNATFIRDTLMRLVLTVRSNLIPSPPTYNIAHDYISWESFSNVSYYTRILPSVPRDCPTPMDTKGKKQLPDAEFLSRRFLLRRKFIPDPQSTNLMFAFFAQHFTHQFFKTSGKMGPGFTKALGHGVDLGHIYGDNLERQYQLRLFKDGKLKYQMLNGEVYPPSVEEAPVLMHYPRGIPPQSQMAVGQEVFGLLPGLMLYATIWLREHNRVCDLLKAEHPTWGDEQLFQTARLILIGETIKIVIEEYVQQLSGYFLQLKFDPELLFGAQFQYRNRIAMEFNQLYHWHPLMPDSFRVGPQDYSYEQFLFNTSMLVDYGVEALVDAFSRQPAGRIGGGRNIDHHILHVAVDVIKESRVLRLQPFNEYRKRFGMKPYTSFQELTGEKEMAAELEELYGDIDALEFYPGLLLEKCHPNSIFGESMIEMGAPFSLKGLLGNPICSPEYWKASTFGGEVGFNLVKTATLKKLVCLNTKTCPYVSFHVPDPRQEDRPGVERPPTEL
Method: In vitro anti-inflammatory activity of 2-amino-3-benzoylbenzeneacetic acid analogues was tested by polarographically monitoring the inhibition in the rate of oxygen consumption (Cook H. W., Ford G., and Lands WEM, Anal. Biochem. 96:341, 1979) in the conversion of arachidonic acid to prostaglandin H2 by prostaglandin H synthase (cyclooxygenase). Cyclooxygenase enzyme was prepared by solubilizing 20 mg of lipid-depletedsheep vesicular gland microsomal powder (Graff G., Stephenson J. H., et al., J. Biol. Chem. 253:7662, 1978) in 1.0 mL of buffer containing 50 mM phosphate, 5 mM diethyldithiocarbamic acid, and 2 μM hematin (pH 7.4). Incubations were carried out at 30° C. with a YSI-oxygen monitor (Model 53) in 50 mM phosphate/0.5 mM phenol buffer (pH 7.4) as described elsewhere (Graff G., and Anderson L. A., Prostaglandins 38:473, 1989).

[4] = single topical dose of 0.1% drug solution/suspension 45 minutes prior to paracentesis, plasma protein influx into aqueous humor
[5] = single topical dose of 0.1% drug solution/suspension 45 minutes prior to paracentesis

IC50 [3]	less effective inhibitors of cyclooxygenase activity in vitro [3]	Compound	inhibition in vivo at 0.1 % [1, 4]	In Vivo Aqueous Humor PGE2 Accumulation Inhibition [1, 5]	inhibition in vivo at 0.1 % [2]	spectrum of inhibition of iris/ciliary body prostaglandins ([2]; individual prostaglandins)	ex vivo iris/ciliary body prostaglandin synthesis inhibition, result in words ([2]; rabbit, in vivo)	inhibition in vivo at 0.1 % [1]	in vivo anti-inflammatory activity, result in words ([1]; plasma protein influx and aqueous humor PGE2 accumulation)	in vitro cyclooxygenase inhibition, result in words [3]	in vivo anti-inflammatory activity, result in words [1]
0.029 µM		Nc1c(CC(=O)O)cccc1C(=O)c1ccc(Br)cc1 [Bromfenac, reference compound]	62%	98%	44%						
> 100 µM	≥ 3 orders of magnitude	NC(=O)Cc1cccc(C(=O)c2ccc(Cl)cc2)c1N [Compound 9, 2-Amino-3-(4-chlorobenzoyl)-phenylacetamide]	65%	98%	29%						
64 µM	≥ 3 orders of magnitude	NC(=O)Cc1cccc(C(=O)c2ccccc2)c1N [Compound 8, 2-Amino-3-benzoyl-phenylacetamide]	61%	98%	81%	inhibited to a similar extent	most effective inhibitor				
0.171 µM		Nc1c(CC(=O)O)cccc1C(=O)c1ccc(F)cc1 [4'-F OH, reference compound]	42%								
		O=C(O)Cc1ccccc1Nc1c(Cl)cccc1Cl [Diclofenac, reference compound]		97%	50%			54%	somewhat less effective	somewhat less effective	
16 µM	≥ 3 orders of magnitude	CNC(=O)Cc1cccc(C(=O)c2ccc(Br)cc2)c1N [Compound 16, 2-Amino-3-(4-bromobenzoyl)-N-methyl phenylacetamide]	62%	93%	48%						
133 µM	≥ 3 orders of magnitude	NC(=O)Cc1cccc(C(=O)c2ccc(F)cc2)c1N [Compound 7, 2-Amino-3-(4-fluorobenzoyl)-phenylacetamide]	72%	98%	27%						
> 25 µM		CCOC(=O)Cc1cccc(C(=O)c2ccc(Br)cc2)c1N [Compound 14, Ethyl-2-Amino-3-(4-bromobenzoyl)benzene acetate]	60%		33%						
19 µM	≥ 3 orders of magnitude	NC(=O)Cc1cccc(C(=O)c2ccc(Br)cc2)c1N [Compound 15, 2-Amino-3-(4-bromobenzoyl)-phenylacetamide]	64%	97%	23%						
0.25 µM		Nc1c(CC(=O)O)cccc1C(=O)c1ccccc1 [Amfenac, 2-amino-3-benzoylbenzeneacetic acid, reference compound]	41%								
0.07 µM		Nc1c(CC(=O)O)cccc1C(=O)c1ccc(Cl)cc1 [4'-Cl OH, 2-amino-3-(4-chloro-benzoyl)benzeneacetic acid, reference compound]	72%	99%							
> 100 µM		CN(C)C(=O)Cc1cccc(C(=O)c2ccc(Br)cc2)c1N [4'-Br N(CH3)2, reference compound]	2%	-27%						inactive	inactive
